Results as given in patent publication US11026954B2, “3-beta-hydroxy-5-alpha-pregnan-20-one for use in medical treatment” (ASARINA PHARMA AB, priority 2017, dated 2021).

Experiments:
[1] = target: T1, human alpha4,beta3,delta GABAA receptor (Homo sapiens, UniProt P28472+P48169); experiment: Patch-clamp (Dynaflow) on HEK-293 cells expressing GABAA receptor alpha4,beta3,delta; format: cell-based
T1 construct: expressed in transfected cells
Excerpt: (§1) Assay for Testing GABAA Receptor Effects of 3Beta-Hydroxy-5Alpha-Pregnan-20-One on Human Alpha1,Beta,Gamma and Alpha4,Beta,Delta GABAA Receptor Subtype.
(§2) 2) in absence and in presence of the positive GABAA receptor modulating steroids Tetrahydrodeoxycorticosterone (THDOC) and 3alpha-hydroxy-5alpha-androstan-17-ol (3alpha-OH-adiol) by the Dynaflow™ system on HEK-293 cells. In these tests the protocol was optimized to be similar to the physiological conditions in the synaptic cleft.
(§3) HEK-293 cells, permanently transfected with the human alpha1,beta,gamma and alpha4,beta,delta GABAA receptor subtypes, were seeded at a density of 3×10^4/25 cm^2 in cellbind culture flask. The transfected cells were used for patch-clamp experiments 3 days after seeding. When using the cells for patch-clamp experiments the cells were washed twice with oxygen-bubbled extracellular (EC) solution (see below). About 5 mL EC was then added and the cells were kept in the incubator for about 15 minutes. After 15 minutes the cells came loose from the bottom of the flask and were separated by carefully sucking couple of times with a Pasteur pipette.
(§4) Dynaflow™ system with Resolve chip was used for patch-clamp experiments: The electrophysiological recordings from HEK-293 cells were performed under voltage-clamp conditions using patch-clamp technique and the Dynaflow™ system (Dynaflow Pro II Platform Zeiss Axiovert 25; Cellectricon AB, Sweden) with Resolve chips as application system.
(§5) Patch pipettes were pulled from borosilicate glass and polished to a resistance 2-5 MΩ when filled with suitable intracellular solution (IC) (pH was adjusted to 7.2) and immersed in bath solution (extracellular, EC) (pH is adjusted to 7.4). The recordings were made using an Axopatch 200B amplifier, a Digidata 1322A (Axon instruments, Foster city, USA). Data were acquired using the pCLAMP software sampled at 10 kHz, filtered at 2-10 kHz and analyzed with Clampfit (versions 9.0, both from Axon instruments, Foster city, USA). No higher series resistance than 20 MΩ between pipette and cell membrane was accepted. No series resistance compensation was used. The stability of series resistance was monitored repeatedly from the time course of capacitative transients during the experiments. The measured liquid-junction potential between EC and IC was subtracted in all data presented. All experiments were performed at room temperature (21-23° C.).
(§6) All steroids were dissolved to the concentration of 6 mM in DMSO. […] End solutions were the solutions added into the wells of the chip.
(§7) After compensating for the liquid junction potential a steady holding potential of −17 mV was used in all experiments. […] By using the holding potential of −17 mV and the intracellular solution with low chloride ion concentration the chloride ions flux into the cell when the receptors were activated.
(§8) The Dynaflow system allowed application of solutions for as short as 40 ms up to minutes in time.
(§9) In the experiments, THDOC and 3alpha-OH-adiol were used as the positive GABAA receptor modulating steroids.
(§10) Different incubation times were studied to achieve the optimal time for attain stable results and minimize the washout time.
(§11) Cell lines permanently expressing a functional human GABAA receptor was made in following steps. The GABAA receptor subunits alpha1, beta2 and gamma2L or alpha4, beta3 and delta including introduced Kozac sequences just before the start codons, were subcloned into mammalian expression vectors containing Geneticin, Hygromycin B, and Zeocin resistance, respectively.

[2] = target: T2, human alpha1,beta2,gamma2 GABAA receptor (Homo sapiens, UniProt P14867+P47870); experiment: Patch-clamp (Dynaflow) on HEK-293 cells expressing GABAA receptor alpha1,beta2,gamma2; format: cell-based; details: for effect by itself (Baseline shift): absence of GABA
T2 construct: expressed in transfected cells
Excerpt: as §1, §2, §3, §4, §5, §6, §7, §8, §9, §10, §11

[3] = 1 μM 3beta-hydroxy-5alpha-pregnan-20-one

T2 sequence (P14867 28-456): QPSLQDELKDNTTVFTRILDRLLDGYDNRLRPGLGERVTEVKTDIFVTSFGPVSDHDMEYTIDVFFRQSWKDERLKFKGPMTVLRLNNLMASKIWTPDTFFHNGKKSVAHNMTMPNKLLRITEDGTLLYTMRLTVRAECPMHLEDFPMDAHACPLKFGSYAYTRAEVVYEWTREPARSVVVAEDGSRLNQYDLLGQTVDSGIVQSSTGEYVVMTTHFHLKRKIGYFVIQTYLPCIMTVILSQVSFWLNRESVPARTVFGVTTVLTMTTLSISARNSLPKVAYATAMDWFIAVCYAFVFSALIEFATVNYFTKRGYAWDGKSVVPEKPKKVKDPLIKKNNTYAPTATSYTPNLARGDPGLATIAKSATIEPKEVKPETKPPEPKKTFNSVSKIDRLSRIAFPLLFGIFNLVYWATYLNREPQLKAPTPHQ
T2 sequence (P47870 25-512 limits assumed): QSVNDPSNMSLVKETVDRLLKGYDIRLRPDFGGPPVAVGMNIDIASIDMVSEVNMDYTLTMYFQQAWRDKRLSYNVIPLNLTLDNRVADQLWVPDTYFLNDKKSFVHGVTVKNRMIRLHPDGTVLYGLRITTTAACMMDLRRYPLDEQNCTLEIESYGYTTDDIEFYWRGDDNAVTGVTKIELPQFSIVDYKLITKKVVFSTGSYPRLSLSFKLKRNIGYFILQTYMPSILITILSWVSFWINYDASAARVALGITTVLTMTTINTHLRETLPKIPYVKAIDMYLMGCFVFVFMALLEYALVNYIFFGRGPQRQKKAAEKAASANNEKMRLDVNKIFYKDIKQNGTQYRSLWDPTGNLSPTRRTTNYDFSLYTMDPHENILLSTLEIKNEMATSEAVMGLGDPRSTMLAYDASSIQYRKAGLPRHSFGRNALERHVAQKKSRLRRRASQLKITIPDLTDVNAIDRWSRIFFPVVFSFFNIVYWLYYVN
T2 sequence (P18507 40-475 partner): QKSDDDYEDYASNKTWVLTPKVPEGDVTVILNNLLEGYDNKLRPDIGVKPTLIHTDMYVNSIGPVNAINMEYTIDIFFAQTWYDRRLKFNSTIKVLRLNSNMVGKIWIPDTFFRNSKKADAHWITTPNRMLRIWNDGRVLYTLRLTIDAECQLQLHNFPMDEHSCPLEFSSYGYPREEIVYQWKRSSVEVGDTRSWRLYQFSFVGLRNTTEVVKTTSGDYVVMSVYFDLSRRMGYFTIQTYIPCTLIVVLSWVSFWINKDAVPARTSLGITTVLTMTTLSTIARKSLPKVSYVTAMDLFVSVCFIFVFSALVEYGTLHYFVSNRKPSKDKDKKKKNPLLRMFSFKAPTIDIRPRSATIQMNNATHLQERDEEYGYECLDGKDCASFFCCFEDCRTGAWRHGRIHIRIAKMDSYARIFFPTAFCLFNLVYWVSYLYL
T1 sequence (P48169 36-554): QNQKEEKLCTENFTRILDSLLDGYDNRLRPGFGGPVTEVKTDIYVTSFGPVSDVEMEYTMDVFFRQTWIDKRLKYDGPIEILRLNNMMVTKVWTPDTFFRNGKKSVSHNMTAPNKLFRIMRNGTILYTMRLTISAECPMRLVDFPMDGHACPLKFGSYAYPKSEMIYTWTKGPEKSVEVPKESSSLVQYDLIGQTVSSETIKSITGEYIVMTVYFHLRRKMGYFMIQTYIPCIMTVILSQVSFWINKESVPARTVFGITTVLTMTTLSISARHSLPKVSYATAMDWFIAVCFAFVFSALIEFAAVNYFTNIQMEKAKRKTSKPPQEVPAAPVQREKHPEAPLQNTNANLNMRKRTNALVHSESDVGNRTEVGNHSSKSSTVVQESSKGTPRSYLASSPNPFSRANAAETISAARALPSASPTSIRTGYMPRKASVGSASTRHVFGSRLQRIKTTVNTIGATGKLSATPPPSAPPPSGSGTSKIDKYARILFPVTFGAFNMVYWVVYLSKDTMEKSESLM
T1 sequence (P28472 26-473): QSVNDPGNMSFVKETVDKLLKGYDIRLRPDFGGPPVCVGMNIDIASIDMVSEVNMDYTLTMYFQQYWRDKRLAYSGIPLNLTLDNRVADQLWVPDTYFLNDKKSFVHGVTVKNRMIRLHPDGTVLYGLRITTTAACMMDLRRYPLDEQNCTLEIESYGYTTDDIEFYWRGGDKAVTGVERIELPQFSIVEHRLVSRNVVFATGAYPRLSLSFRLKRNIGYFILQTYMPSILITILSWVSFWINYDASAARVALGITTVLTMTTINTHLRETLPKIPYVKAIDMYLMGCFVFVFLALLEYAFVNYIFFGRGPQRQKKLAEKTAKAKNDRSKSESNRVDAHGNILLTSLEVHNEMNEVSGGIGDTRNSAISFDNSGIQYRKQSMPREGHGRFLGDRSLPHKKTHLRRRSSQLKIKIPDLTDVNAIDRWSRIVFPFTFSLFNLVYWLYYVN
T1 sequence (O14764 17-452 partner limits assumed): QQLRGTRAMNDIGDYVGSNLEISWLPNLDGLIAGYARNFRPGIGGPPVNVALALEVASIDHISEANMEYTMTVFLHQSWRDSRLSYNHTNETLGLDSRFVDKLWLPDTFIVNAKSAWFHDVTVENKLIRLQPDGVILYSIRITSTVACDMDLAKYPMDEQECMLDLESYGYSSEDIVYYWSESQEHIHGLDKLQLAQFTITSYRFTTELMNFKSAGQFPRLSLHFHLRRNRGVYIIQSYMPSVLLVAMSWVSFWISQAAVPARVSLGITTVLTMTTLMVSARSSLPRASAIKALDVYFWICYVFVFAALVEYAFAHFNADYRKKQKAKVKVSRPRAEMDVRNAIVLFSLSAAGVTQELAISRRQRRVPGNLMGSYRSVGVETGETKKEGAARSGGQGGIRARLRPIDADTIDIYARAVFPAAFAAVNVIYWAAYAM

C[C@]12CC[C@@H](O)C[C@@H]1CC[C@@H]1[C@@H]2CC[C@]2(C)C(O)CC[C@@H]12 (stereo partly drawn) [Androstandiol, 3alpha-hydroxy-5alpha-androstan-17-ol]
Baseline shift (current response in absence of GABA) ([1]; 3 μM androstandiol): +8 ± 3.6 pA | Baseline shift (current response in absence of GABA) ([1]; 10 μM androstandiol): +13 ± 4.8 pA | Potency at alpha4,beta3,delta relative to alpha1,beta2,gamma2 (higher) ([1]; enhancement of GABA-mediated current): 10 times | effect by itself (Baseline shift) ([2]; 3 μM androstandiol): +8 ± 3.6 pA | effect by itself (Baseline shift) ([2]; 8 μM androstandiol): +13 ± 2.3 pA | effect by itself (Baseline shift) ([2]; 10 μM androstandiol): +11 ± 1.5 pA | effect by itself (Baseline shift) ([2]; 30 μM androstandiol): +24 ± 6.8 pA | effect by itself (Baseline shift) ([2]; 100 μM androstandiol): +43 ± 5.7 pA | Potency relative to THDOC (less potent) ([2]; enhancing the effect of GABA, 30 μM GABA): 48 times

C[C@]12CC[C@@H](O)C[C@H]1CC[C@@H]1[C@@H]2CC[C@]2(C)[C@@H](C(=O)CO)CC[C@@H]12 [THDOC, Tetrahydrodeoxycorticosterone]
Baseline shift (current response in absence of GABA) ([1]; 0.03 μM THDOC): +5 ± 3.3 pA | Baseline shift (current response in absence of GABA) ([1]; 0.1 μM THDOC): +15 ± 9.5 pA | Baseline shift (current response in absence of GABA) ([1]; 0.3 μM THDOC): +12 ± 7.9 pA | Baseline shift (current response in absence of GABA) ([1]; 1 μM THDOC): +69 ± 35 pA | Emax, enhancement of GABA mediated current response ([1]; THDOC + 3 μM GABA): 297% | EC50 ([1]; read-out: EC50, enhancement of GABA mediated current response, THDOC + 3 μM GABA): 47 nM | Emax, enhancement of GABA mediated current ([2]; 0.03-1 μM THDOC + 30 μM GABA): +115% | EC50 ([2]; read-out: EC50, enhancement of GABA mediated current, 0.03-1 μM THDOC + 30 μM GABA): 70 nM

CC(=O)[C@H]1CC[C@H]2[C@@H]3CC[C@H]4C[C@@H](O)CC[C@]4(C)[C@H]3CC[C@]12C [3beta-hydroxy-5alpha-pregnan-20-one]
Effect on 0.6 μM Androstandiol + 3 μM GABA [1, 3]: −18 ± 2.0% | Effect on 0.8 μM Androstandiol + 3 μM GABA [1, 3]: −22 ± 2.6% | Effect by itself (current response) ([1]; 1 μM 3beta-hydroxy-5alpha-pregnan-20-one alone, N=11, NS vs EC solution): −0.4±0.3 pA | Effect on 3 μM GABA response ([1]; 1 μM 3beta-hydroxy-5alpha-pregnan-20-one, N=11, NS): −6.7 ± 3.3% | Effect on GABA alone (in words) ([1]; 1 μM 3beta-hydroxy-5alpha-pregnan-20-one, data not shown): without any significant effect | Effect on 0.1 μM THDOC + 3 μM GABA ([1]; 1 μM 3beta-hydroxy-5alpha-pregnan-20-one, steady state): −26 ± 2.4% | Effect on 0.1 μM THDOC alone baseline ([1]; 1 μM 3beta-hydroxy-5alpha-pregnan-20-one, without GABA): −43 ± 3.5% | Antagonism of THDOC enhanced GABA effect (max, concentration-dependent experiment) ([2]; 1 μM 3beta-hydroxy-5alpha-pregnan-20-one + 30 μM GABA + 200 nM THDOC, n=10): −21±4.6% | Effect on 8 μM Androstandiol + 30 μM GABA ([2]; 1 μM 3beta-hydroxy-5alpha-pregnan-20-one, phasic effect): −30 ± 1.7% | Effect on 8 μM Androstandiol, baseline shift ([2]; 1 μM 3beta-hydroxy-5alpha-pregnan-20-one, tonic effect, without GABA): −33 ± 7.6% | Imax, antagonism of THDOC effect ([2]; 0.1-1 μM 3beta-hydroxy-5alpha-pregnan-20-one + 30 μM GABA + 200 nM THDOC): −21% | Antagonism of THDOC enhanced GABA effect (single dose) ([2]; single dose 1 μM + 30 μM GABA + 200 nM THDOC, n=6): −22.3±5.3%
